Experiments:
[1] = tested on: E. coli DW2 strain (melB−, lacZ−Y−); assay: [3H]Melibiose transport time course with DW2 intact cells; assay type: cell-based, Escherichia coli; design: unit not given here; conditions: 0.4 mM [3H]melibiose
Procedure: (§1) Fig. 1 Functional characterizations. a [^3H] Melibiose transport time course with intact cells. E. coli DW2 strain (melB^−, lacZ^−Y^−) expressed with the WT, D59C, or D59A MelBSt mutants were subjected to [^3H]melibiose active transport assay at 0.4 mM and 10 mCi/mmol in the presence of 20 mM or 100 mM NaCl or LiCl by a fast filtration method. Inset, melibiose fermentation assay. Transformants with DW2 strain were plated on MacConkey agar plates containing 30 mM melibiose as the sole carbohydrate source and pH sensor neutral red, and incubated at 37 °C for 16–18 h before imaging. Number of tests = 3, from different batch of cells or duplicate measurements from same batch of sample. b Ligand binding by Trp→dansyl galactoside (D^2G) FRET assay. Purified proteins at 1 μM concentration in 20 mM Tris-HCl, pH 7.5, 100 mM CholCl, 10% glycerol, and 0.03% UDM were subjected to steady-state fluorescence measurements as described in Methods. On the time-trace, 1.8 μL of 1 mM D^2G at 10 μM was added into 180 μL of protein solutions at 1-min point, followed by supplying 10 μL of 5 mM DDMB or 5 mM α-NPG to displace the bound D^2G. For testing Na^+ or Li^+ binding, they are added into the solution before displacement with the second sugar. The structure of DDMB or α-NPG is shown in a chair form, and the carbon positions are labeled. Glycosidic bonds are indicated by arrows. Both are α-galactosides containing a substituent at the anomeric carbon-1. The data were from duplicate measurements.
(§2) The overexpression of MelBSt was carried out in the E. coli DW2 strain (melA^+, melB^−, and lacZ^−Y^−) from a constitutive expression plasmid pK95ΔAH/MelBSt/CHis10[9],[28],[33]. The D59C or D59A mutant with Cys or Ala at the position 59, respectively, was constructed previously[9] or in this study by QuikChange Site-Directed Mutagenesis kit and confirmed by DNA sequencing analysis. E. coli DW2 cells containing a given plasmid were grown in Luria-Bertani (LB) broth (5 g yeast extract and 10 g tryptone per liter with 171 mM NaCl) with 100 mg/L of ampicillin in a 37 °C shaker. The overnight cultures were diluted by 5% with LB broth supplemented with 0.5% glycerol and 100 mg/L of ampicillin, and constitutive overexpression was obtained by shaking at 30 °C for another 5 h.
(§3) E. coli DW2 cells expressing MelBSt were washed with 100 mM KPi, pH 7.5, to remove Na^+ contamination as described previously. The cell pellets were resuspended with the assay buffer (100 mM KPi, pH 7.5, 10 mM MgSO4) and adjusted to A420 of 10 (∼0.7 mg protein/ml). Using a fast filtration, transport time course at 0.4 mM melibiose (at specific activity of 10 mCi/mmol) was carried out in the absence or presence of NaCl or LiCl at 20 mM or 100 mM, respectively, and intracellular melibiose was determined as described previously.

[2] = target: T1, MelBSt D59C (Salmonella typhimurium, UniProt P30878, D59C); assay: [3H]Melibiose transport time course with DW2 intact cells expressing MelBSt D59C; assay type: cell-based; conditions: 0.4 mM [3H]melibiose
T1 construct: Cys scanning mutagenesis for the full-length MelBSt; expressed in transfected cells; host or cells: E. coli DW2 (melA+, melB-, lacZ-Y-)
Procedure: as §1, §2, §3

T1 sequence (P30878 whole entry D59C): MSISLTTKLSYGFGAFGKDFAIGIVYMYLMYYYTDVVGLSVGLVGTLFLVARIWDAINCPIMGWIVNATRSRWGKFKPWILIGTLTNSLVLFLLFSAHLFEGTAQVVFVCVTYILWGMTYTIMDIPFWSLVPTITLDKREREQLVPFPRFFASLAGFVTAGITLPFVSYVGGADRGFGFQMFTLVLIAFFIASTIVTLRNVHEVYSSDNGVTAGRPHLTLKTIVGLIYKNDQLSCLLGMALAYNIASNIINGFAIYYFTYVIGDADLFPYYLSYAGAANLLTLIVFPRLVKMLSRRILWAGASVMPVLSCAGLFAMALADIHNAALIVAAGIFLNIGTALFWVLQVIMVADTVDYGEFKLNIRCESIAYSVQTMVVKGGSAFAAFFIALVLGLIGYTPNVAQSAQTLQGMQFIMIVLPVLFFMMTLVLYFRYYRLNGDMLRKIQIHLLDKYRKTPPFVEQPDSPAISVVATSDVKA

## OC[C@H]1O[C@H](OCC2O[C@@H](O)[C@H](O)[C@@H](O)[C@@H]2O)[C@H](O)[C@@H](O)[C@H]1O (some centres unmarked) [Melibiose]
[1]; H+, Time 0.08333
  Melibiose transport: 5.1051
[1]; H+, Time 0.16667
  Melibiose transport: 0.0051
[1]; H+, Time 0.5
  Melibiose transport: 5.3907
[1]; H+, Time 1
  Melibiose transport: 1.8156
[1]; H+, Time 2
  Melibiose transport: 6.1659
[1]; H+, Time 5
  Melibiose transport: 3.5343
[1]; H+, Time 10
  Melibiose transport: 0.765
[1]; H+, Time 30
  Melibiose transport: 0.4743
[1]; Li+, 20 mM, Time 0.08333
  Melibiose transport: 4.9419
[1]; Li+, 20 mM, Time 0.16667
  Melibiose transport: 5.658
[1]; Li+, 20 mM, Time 0.5
  Melibiose transport: 3.542
[1]; Li+, 20 mM, Time 1
  Melibiose transport: 2.349
[1]; Li+, 20 mM, Time 2
  Melibiose transport: 6.918
[1]; Li+, 20 mM, Time 5
  Melibiose transport: 4.664
[1]; Li+, 20 mM, Time 10
  Melibiose transport: 5.3448
[1]; Li+, 20 mM, Time 30
  Melibiose transport: 4.1259
[1]; Li+, 100 mM, Time 0.08333
  Melibiose transport: 3.0914
[1]; Li+, 100 mM, Time 0.16667
  Melibiose transport: 1.7168
[1]; Li+, 100 mM, Time 0.5
  Melibiose transport: 6.0378
[1]; Li+, 100 mM, Time 1
  Melibiose transport: 1.9198
[1]; Li+, 100 mM, Time 2
  Melibiose transport: 3.77
[1]; Li+, 100 mM, Time 5
  Melibiose transport: 5.9682
[1]; Li+, 100 mM, Time 10
  Melibiose transport: 7.743
[1]; Li+, 100 mM, Time 30
  Melibiose transport: -0.2436
[1]; Na+, 20 mM, Time 0.08333
  Melibiose transport: 5.1051
[1]; Na+, 20 mM, Time 0.16667
  Melibiose transport: 0.0051
[1]; Na+, 20 mM, Time 0.5
  Melibiose transport: 5.3907
[1]; Na+, 20 mM, Time 1
  Melibiose transport: 1.8156
[1]; Na+, 20 mM, Time 2
  Melibiose transport: 6.1659
[1]; Na+, 20 mM, Time 5
  Melibiose transport: 3.5343
[1]; Na+, 20 mM, Time 10
  Melibiose transport: 0.765
[1]; Na+, 20 mM, Time 30
  Melibiose transport: 0.4743
[1]; Na+, 100 mM, Time 0.08333
  Melibiose transport: 0.1281
[1]; Na+, 100 mM, Time 0.16667
  Melibiose transport: 1.6531
[1]; Na+, 100 mM, Time 0.5
  Melibiose transport: 2.6962
[1]; Na+, 100 mM, Time 1
  Melibiose transport: 0.671
[1]; Na+, 100 mM, Time 2
  Melibiose transport: -3.3611
[1]; Na+, 100 mM, Time 5
  Melibiose transport: 0.2867
[1]; Na+, 100 mM, Time 10
  Melibiose transport: 0.0793
[1]; Na+, 100 mM, Time 30
  Melibiose transport: -2.3912
[2]; H+, Time 0.08
  Melibiose transport: 2.90
[2]; H+, Time 0.17
  Melibiose transport: 4.95
[2]; H+, Time 0.50
  Melibiose transport: 7.21
[2]; H+, Time 1.00
  Melibiose transport: 7.87
[2]; H+, Time 2.00
  Melibiose transport: 9.68
[2]; H+, Time 5.00
  Melibiose transport: 7.94
[2]; H+, Time 10.00
  Melibiose transport: 6.75
[2]; H+, Time 30.00
  Melibiose transport: 4.22
[2]; Li+, 20 mM, Time 0.08
  Melibiose transport: 4.23
[2]; Li+, 20 mM, Time 0.17
  Melibiose transport: 7.46
[2]; Li+, 20 mM, Time 0.50
  Melibiose transport: 9.40
[2]; Li+, 20 mM, Time 1.00
  Melibiose transport: 8.14
[2]; Li+, 20 mM, Time 2.00
  Melibiose transport: 8.43
[2]; Li+, 20 mM, Time 5.00
  Melibiose transport: 9.92
[2]; Li+, 20 mM, Time 10.00
  Melibiose transport: 9.02
[2]; Li+, 20 mM, Time 30.00
  Melibiose transport: 7.58
[2]; Li+, 100 mM, Time 0.08
  Melibiose transport: 5.34
[2]; Li+, 100 mM, Time 0.17
  Melibiose transport: 7.70
[2]; Li+, 100 mM, Time 0.50
  Melibiose transport: 7.46
[2]; Li+, 100 mM, Time 1.00
  Melibiose transport: 5.16
[2]; Li+, 100 mM, Time 2.00
  Melibiose transport: 7.88
[2]; Li+, 100 mM, Time 5.00
  Melibiose transport: 5.54
[2]; Li+, 100 mM, Time 10.00
  Melibiose transport: 7.56
[2]; Li+, 100 mM, Time 30.00
  Melibiose transport: 11.83
[2]; Na+, 20 mM, Time 0.08
  Melibiose transport: 4.91
[2]; Na+, 20 mM, Time 0.17
  Melibiose transport: 5.04
[2]; Na+, 20 mM, Time 0.50
  Melibiose transport: 6.31
[2]; Na+, 20 mM, Time 1.00
  Melibiose transport: 7.41
[2]; Na+, 20 mM, Time 2.00
  Melibiose transport: 16.16
[2]; Na+, 20 mM, Time 5.00
  Melibiose transport: 8.09
[2]; Na+, 20 mM, Time 10.00
  Melibiose transport: 6.24
[2]; Na+, 20 mM, Time 30.00
  Melibiose transport: 9.30
[2]; Na+, 100 mM, Time 0.08
  Melibiose transport: 0.60
[2]; Na+, 100 mM, Time 0.17
  Melibiose transport: 4.32
[2]; Na+, 100 mM, Time 0.50
  Melibiose transport: 10.86
[2]; Na+, 100 mM, Time 1.00
  Melibiose transport: 12.92
[2]; Na+, 100 mM, Time 2.00
  Melibiose transport: 6.61
[2]; Na+, 100 mM, Time 5.00
  Melibiose transport: 1.42
[2]; Na+, 100 mM, Time 10.00
  Melibiose transport: 5.04
[2]; Na+, 100 mM, Time 30.00
  Melibiose transport: 9.00
